Results taken from patent publication US12054485B2, “Substituted imidazoquinolines” (BIONTECH SE, priority 2017, dated 2024).
pEC50: −log10 of the molar value.

Tests used:
[1] = test system: superficial basal cell carcinomas; details: 5% cream (Aldara), topical; cited from earlier work
human TLR7 = molecular target: T1, human TLR7 (Homo sapiens, UniProt Q9NYK1); assay: TLR7 reporter gene assay (HEK-Blue-hTLR7, NFkB/AP-1 inducible SEAP); type: cell-based; details: HEK-Blue-hTLR7; highest concentration without any activity; read-out: activity towards TLR7 (no activity up to a concentration of)
T1 construct: host or cells: HEK-Blue-hTLR7
T1 sequence (Q9NYK1 27-1049): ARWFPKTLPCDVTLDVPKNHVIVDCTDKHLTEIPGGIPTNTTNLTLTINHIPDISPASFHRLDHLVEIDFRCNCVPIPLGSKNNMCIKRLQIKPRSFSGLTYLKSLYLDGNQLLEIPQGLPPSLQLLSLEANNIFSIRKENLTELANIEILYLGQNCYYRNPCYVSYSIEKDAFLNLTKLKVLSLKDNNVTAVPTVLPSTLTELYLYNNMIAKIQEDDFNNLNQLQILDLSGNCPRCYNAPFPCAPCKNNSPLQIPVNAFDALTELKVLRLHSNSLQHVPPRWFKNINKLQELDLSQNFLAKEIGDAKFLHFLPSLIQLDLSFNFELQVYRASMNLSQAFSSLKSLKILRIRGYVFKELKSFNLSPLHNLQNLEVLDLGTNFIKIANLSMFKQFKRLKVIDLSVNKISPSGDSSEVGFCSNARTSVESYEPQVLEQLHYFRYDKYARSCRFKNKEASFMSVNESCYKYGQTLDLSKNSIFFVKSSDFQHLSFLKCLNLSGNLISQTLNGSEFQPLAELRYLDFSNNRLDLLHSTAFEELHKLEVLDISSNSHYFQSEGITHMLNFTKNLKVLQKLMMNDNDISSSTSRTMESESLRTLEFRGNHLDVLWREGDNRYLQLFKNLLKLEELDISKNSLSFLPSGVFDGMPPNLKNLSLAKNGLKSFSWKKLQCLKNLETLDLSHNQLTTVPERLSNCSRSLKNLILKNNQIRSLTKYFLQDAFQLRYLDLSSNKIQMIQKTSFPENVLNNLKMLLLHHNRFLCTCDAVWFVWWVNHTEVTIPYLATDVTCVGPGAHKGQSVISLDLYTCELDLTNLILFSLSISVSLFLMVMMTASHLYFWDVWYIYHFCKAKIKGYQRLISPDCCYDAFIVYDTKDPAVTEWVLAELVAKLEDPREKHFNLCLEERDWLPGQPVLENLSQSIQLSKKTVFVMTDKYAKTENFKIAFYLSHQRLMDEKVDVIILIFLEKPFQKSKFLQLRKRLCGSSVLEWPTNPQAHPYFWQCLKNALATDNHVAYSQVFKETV
Procedure: (§1) 2) TLR Stimulation Assay:
(§2) Compounds are tested for stimulation of human TLR7 and TLR8, respectively, via reporter gene expression analyzed in a cell line stably transfected with human TLR7 and TLR8, respectively, and coexpressing an NFkB/AP-1 inducible SEAP reporter gene. Stimulation with a TLR ligand leads to NFkB/AP-1 activation and upregulation and secretion of SEAP, which can be measured in the supernatant with QuantiBlue™ detection system (InvivoGen).
Cell lines used were either HEK-Blue-hTLR7 (InvivoGen #hkb-htlr7) or HEK-Blue-hTLR8 (InvivoGen #hkb-htlr8). Cells were cultured following manufacturer's instructions.
Assay: • prepare cell suspensions of each cell line with Nv=0.11×10^6 cells/ml in medium (DMEM 4.5 g/l Glucose, 2-4 mM L-glutamine+10% FBS) without antibiotics (Nv=number of living cells) • add 180 μl of the suspensions per well of a 96 well flat bottom cell culture plates (coster, #3506) • incubate the plates overnight at 37° C. and 5% CO2 • prepare samples and controls as solutions in DMSO: R848, CL075 (TLR 7/8 agonist by InvivoGen) and Guardiquimod each to a final concentration of 10 μM, ODN2006 (InvivoGen) and ODN2216 (InvivoGen) each to a final concentration 2 μM; • compounds of the invention are applied in dilution series to final concentrations of 30, 10, 3, 1, etc. μM • add 20 μl diluted compounds and controls (see above) to the wells • incubate plates for 20-24 h at 37° C. and 5% CO2 • prepare QuantiBlue™ (InvivoGen #10H19-MM) solution, following manufacturer's instructions: solubilize the powder of one pouch in 100 ml MilliQ grade water, heat at 37° C. in a water bath for about 30 min, filter the solution with a paper filter • add 100 μl prepared QuantiBlue™ solution in each well of a 96 well plate with flat bottom • add […] cell culture supernatant from the induced cells per well • incubate plates for 1 to 1.5 h at 37° C. (until an intense blue color has developed) • read OD at 620 nm with a plate reader • calculate EC50 from data points

human TLR8 = molecular target: T2, human TLR8 (Homo sapiens, UniProt Q9NR97); assay: TLR8 reporter gene assay (HEK-Blue-hTLR8, NFkB/AP-1 inducible SEAP); type: cell-based
T2 construct: host or cells: HEK-Blue-hTLR8
T2 sequence (Q9NR97 27-1041): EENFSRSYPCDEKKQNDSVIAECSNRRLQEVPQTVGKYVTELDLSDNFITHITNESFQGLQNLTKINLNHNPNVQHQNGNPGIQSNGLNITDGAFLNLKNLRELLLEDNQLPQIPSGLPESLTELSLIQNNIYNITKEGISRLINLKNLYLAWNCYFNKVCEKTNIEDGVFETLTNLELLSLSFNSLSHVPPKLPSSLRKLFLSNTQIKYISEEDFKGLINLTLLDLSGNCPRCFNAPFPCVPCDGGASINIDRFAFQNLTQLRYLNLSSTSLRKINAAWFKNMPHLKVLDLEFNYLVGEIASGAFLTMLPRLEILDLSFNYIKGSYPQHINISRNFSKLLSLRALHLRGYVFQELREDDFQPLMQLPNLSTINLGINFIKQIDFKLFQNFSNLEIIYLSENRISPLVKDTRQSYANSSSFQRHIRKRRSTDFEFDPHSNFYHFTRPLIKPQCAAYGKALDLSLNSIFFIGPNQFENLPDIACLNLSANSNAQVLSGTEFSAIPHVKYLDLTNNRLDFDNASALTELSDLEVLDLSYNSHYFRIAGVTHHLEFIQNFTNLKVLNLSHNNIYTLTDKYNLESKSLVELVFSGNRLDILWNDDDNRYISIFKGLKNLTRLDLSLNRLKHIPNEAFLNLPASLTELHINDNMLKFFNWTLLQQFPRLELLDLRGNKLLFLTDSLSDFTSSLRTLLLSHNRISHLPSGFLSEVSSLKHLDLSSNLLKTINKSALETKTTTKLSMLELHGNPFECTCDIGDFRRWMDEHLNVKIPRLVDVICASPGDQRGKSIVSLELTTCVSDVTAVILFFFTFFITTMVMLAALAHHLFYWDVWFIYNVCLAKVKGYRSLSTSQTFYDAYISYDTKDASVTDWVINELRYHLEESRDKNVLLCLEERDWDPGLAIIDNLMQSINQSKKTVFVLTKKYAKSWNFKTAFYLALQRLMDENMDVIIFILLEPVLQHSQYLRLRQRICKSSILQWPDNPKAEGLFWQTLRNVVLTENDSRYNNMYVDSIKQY
Procedure: as §1, §2
Cell lines used were either HEK-Blue-hTLR7 (InvivoGen #hkb-htlr7) or HEK-Blue-hTLR8 (InvivoGen #hkb-htlr8). Cells were cultured following manufacturer's instructions. […]

| SMILES | 5-year clearance of superficial basal cell carcinomas [1] | pEC50 (human TLR7) | activity towards TLR8 in the TLR8 reporter gene assay (human TLR8) |
| --- | --- | --- | --- |
| CC(C)Cn1cnc2c(N)nc3ccccc3c21 [Imiquimod, imiquimod] | approx. 80% | – | – |
| CCc1nc2c(N)nc3ccccc3c2n1CCCCNC1CCOCC1 [example V, 2-ethyl-1-(4-((tetrahydro-2H-pyran-4-yl)amino)butyl)-1H-imidazo[4,5-c]quinolin-4-amine] | – | < 4.52 | displayed activity |
